In patent US20070238725A1, “Therapeutic combinations for the treatment or prevention of psychotic disorders” (Wyeth, priority 2006, published 2007):
Where two headings read alike, the source gives them in different places.

Key:
[1] = test system: apomorphine-induced climbing; experiment: Apomorphine-induced climbing in mice; type: in vivo; settings: for block of apomorphine-induced climbing: versus either compound alone; for ED50: Mus musculus, read-out: ED50 for apomorphine block; for dose for increased efficacy with co-administration: co-administration with haloperidol
Method: (Compound 2, “cpd 2”) to exemplify, the present Example describes four experiments in which a compound of formula I, was administered in combination with either a typical (exemplified by haloperidol) or atypical (exemplified by clozapine). The combination reduced apomorphine-induced climbing without side effects.
(§1) Mice were acclimated to the climbing cages for at least 1 hour and then dosed with either the vehicle or a dose of haloperidol or clozapine followed by a dose of either vehicle or a dose of Compound 1. Thirty minutes after dosing all mice received 1 mg/kg, s.c. apomorphine and returned to the climbing cages. Five minutes after apomorphine the mice were observed and scored for climbing and stereotypy every 5 minutes for the 30 minute test session.

[2] = test system: stereotypy; experiment: Apomorphine-induced stereotypy scored in the climbing test; type: in vivo, mice
Method: as §1

[3] = test system: haloperidol induced catalepsy; experiment: Catalepsy (bar test), extra-pyramidal side effect liability; type: in vivo, mice; settings: for dose for increased EPS liability with co-administration: co-administration with haloperidol, mice
Method: (Compound 2, “cpd 2”) to exemplify, the present Example describes an experiment in which a compound of formula I was administered in combination with haloperidol to assess extra-pyramidal side effect liability, as represented by cataleptic behavior. [table] [table] [table] Mice were dosed with either the vehicle or a dose of haloperidol followed by a dose of either vehicle or a dose of Compound 1 or Compound 2. Thirty, 60, 90 and 120 minutes after dosing, the forelegs are draped over a thin horizontal rod 1.75″ high. The number of seconds up to 60 sec for which the mouse remains on the bar is recorded at each test point and presented as the percent of maximum possible response (60 sec).

[4] = test system: conditioned avoidance responding; experiment: Conditioned avoidance responding; type: in vivo; settings: rats
Method: (Compound 2, “cpd 2”) to exemplify, the present Example describes an experiment to determine the effect of co-administration of haloperidol (0.54 mg/kg, i.p. 30′ pretreatment) or clozapine (5.4 mg/kg, i.p., 30′ pretreatment) and compound 1 (0.54 mg/kg, i.p., 30′ pretreatment) or compound 2 (1 mg/kg, i.p. 30′ pretreatment) on conditioned avoidance responding.
Male rats had been trained to a stable criterion performance of 90% avoidance responding and had been used in previous drug studies. The dosing plan was a within subject pseudo random design so that all rats received all treatments over several weeks. On test days in experiments 1 and 2 the rats were dosed with vehicle, Compound 1, haloperidol or clozapine or a combination of Compound 1/haloperidol or Compound 1/clozapine. On test days in experiments 3 and 4 the rats were dosed with vehicle, Compound 2, haloperidol or clozapine or a combination of Compound 2/haloperidol or Compound 2/clozapine. Conditioned avoidance testing commenced 30 minutes after treatment and the rats received 50 trials and the number of avoidance, escape and no response trials was recorded.

[5] = sc, 0.5 h, compound alone, mice, apomorphine 1 mg/kg s.c. 30 min after dosing
[6] = administered individually, 0.54 mg/kg i.p., 30 min pretreatment

c1cc2c3c(c1)[C@H]1CCC[C@H]1N3CCNC2 [Compound 1]
block of apomorphine-induced climbing ([1]; Compound 1 5.4 & 17 mg/kg co-administered with clozapine 3 & 5.4 mg/kg): greater block | block of apomorphine-induced climbing ([1]; Compound 1 5.4 & 17 mg/kg co-administered with haloperidol 0.17 & 0.3 mg/kg): greater block | ED50 [1, 5]: 17 mg/kg | dose for increased efficacy with co-administration ([1]; mice): 5.4 mg/kg | ED50 for apomorphine block ([1]; compound alone, mice, apomorphine 1 mg/kg s.c. 30 min after dosing): 15.89 mg/kg | stereotypy relative to 0.3 haloperidol alone ([2]; 0.3 mg/kg haloperidol with all doses of Compound 1 (1.7, 5.4, 17 mg/kg)): decreased stereotypy | decrease in stereotypy ([2]; 17 mg/kg Compound 1 and 0.17 mg/kg haloperidol combined treatment group): < 10% | decrease in stereotypy ([2]; 17 mg/kg Compound 1 and 5.4 mg/kg clozapine combined treatment): ~13% | catalepsy, percent of maximum catalepsy (60 sec on bar) ([3]; Compound 1 17 mg/kg with 0.17 and 0.3 mg/kg haloperidol, moderate increase, 30-120 min after dosing): up to 30% | dose for increased EPS liability with co-administration [3]: ≥ 17 mg/kg | potentiation of haloperidol-induced catalepsy ([3]; lower doses of Compound 1 (1.7, 5.4 mg/kg) with 0.17 and 0.3 mg/kg haloperidol): failed to potentiate catalepsy | decrease in avoidance responding ([4]; Compound 1 0.54 mg/kg co-administered with clozapine 5.4 mg/kg, i.p.): > 70% | effect on number of no response trials ([4]; Compound 1 0.54 mg/kg co-administered with clozapine 5.4 mg/kg): no adverse effects | decrease in avoidance responding ([4]; Compound 1 0.54 mg/kg co-administered with haloperidol 0.54 mg/kg, i.p.): > 70% | effect on number of no response trials ([4]; Compound 1 0.54 mg/kg co-administered with haloperidol 0.54 mg/kg): no adverse effects | decrease in avoidance responding [4, 6]: ~10%

c1cc2c3c(c1)[C@H]1CCC[C@H]1CN3CCNC2 [Compound 2]
block of apomorphine-induced climbing ([1]; Compound 2 3, 10 & 30 mg/kg co-administered with clozapine 3 & 5.4 mg/kg): greater block | block of apomorphine-induced climbing ([1]; Compound 2 3, 10 & 30 mg/kg co-administered with haloperidol 0.1 & 0.17 mg/kg): greater block | ED50 ([1]; co-administered with 0.1 mg/kg of haloperidol, mice): 2.4 mg/kg | ED50 ([1]; co-administered with 0.17 mg/kg of haloperidol, mice): 4.1 mg/kg | ED50 ([1]; compound alone, Experiment 4, mice): 27.1 mg/kg | ED50 [1, 5]: 27.1 mg/kg | dose for increased efficacy with co-administration ([1]; mice): 3 mg/kg | decrease in stereotypy ([2]; 30 mg/kg Compound 2 and 0.17 mg/kg haloperidol combined treatment relative to haloperidol alone): ~30% | decrease in stereotypy ([2]; 30 mg/kg Compound 2 and 5.4 mg/kg clozapine combined treatment): ~20% | potentiation of haloperidol-induced catalepsy ([3]; Compound 2 10 mg/kg with haloperidol 0.1 and 0.17 mg/kg): failed to potentiate | dose for increased EPS liability with co-administration [3]: > 10 mg/kg | decrease in avoidance responding ([4]; Compound 2 1 mg/kg co-administered with clozapine 5.4 mg/kg, i.p.): > 60% | effect on number of no response trials ([4]; Compound 2 1 mg/kg co-administered with clozapine 5.4 mg/kg): no adverse effects | decrease in avoidance responding ([4]; Compound 2 1 mg/kg co-administered with haloperidol 0.54 mg/kg, i.p.): > 50% | effect on number of no response trials ([4]; Compound 2 1 mg/kg co-administered with haloperidol 0.54 mg/kg): no adverse effects

CN1CCN(C2=Nc3cc(Cl)ccc3Nc3ccccc32)CC1 [clozapine, 8-chloro-11-(4-methyl-1-piperazinyl)-5H-dibenzo[b,e]-[1,4]-diazepine, reference compound]
decrease in avoidance responding ([4]; administered individually, 5.4 mg/kg i.p., 30 min pretreatment): ~10%

O=C(CCCN1CCC(O)(c2ccc(Cl)cc2)CC1)c1ccc(F)cc1 [haloperidol, 4-[4-(4-chlorophenyl)-4-hydroxy-1-piperidinyl]-1-(4-fluoro-phenyl)-1-butanone, reference compound]
decrease in avoidance responding [4, 6]: ~10%
